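Cells were grown in 96-well plates and exposed to each compound for 48 hours at five concentrations; endpoints were interpolated linearly between bracketing concentrations, or set to the highest concentration if not reached. GI50 = concentration required for 50% inhibition of growth. TGI denotes the concentration required for complete inhibition of growth.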
Assays:
Assay in all cases: NCI anticancer screen, dose series, 48 h
[1] = tested on: UACC-62 melanoma
[2] = tested on: IGROV1 ovarian
[3] = tested on: NCI-H522 lung
[4] = tested on: HT29 colon
[5] = tested on: RXF 393 renal
[6] = tested on: MOLT-4 leukemia
[7] = tested on: SK-MEL-2 melanoma
[8] = tested on: HCT-116 colon
[9] = tested on: HL-60(TB) leukemia
[10] = tested on: SK-MEL-28 melanoma

Row | Compound | TGI [1] | TGI [2] | TGI [3] | TGI [4] | TGI [5] | TGI [6] | TGI [7] | TGI [8] | TGI [9] | TGI [10] | GI50 [1] | GI50 [2] | GI50 [3] | GI50 [4] | GI50 [5] | GI50 [6] | GI50 [7] | GI50 [8] | GI50 [9] | GI50 [10]
1 | Cc1ncc(CO)c(CN)c1O | > 100 µM | > 100 µM | > 100 µM | > 100 µM | > 100 µM | > 100 µM | > 100 µM | > 100 µM | > 100 µM | > 100 µM | – | – | – | – | – | – | – | – | – | –
2 | CN(C)CCNC(=O)c1cccc2nc3c4ccccc4c4ccccc4c3nc12 | 5.51 µM | 12.3 µM | 23.4 µM | 3.01 µM | 4.65 µM | 4.96 µM | 8.24 µM | 3.21 µM | 4.09 µM | 3.27 µM | – | – | – | – | – | – | – | – | – | –
3 | COc1cc2c(cc1OC)C(Cl)C(c1ccc(Cl)cc1)=C2Cl (configuration not stated) | 40.4 µM | 48.3 µM | 32.5 µM | 28.6 µM | – | 42.5 µM | 36.3 µM | – | 41 µM | 41.4 µM | – | – | – | – | – | – | – | – | – | –
4 | CCN(CC)Cc1ccc2cccnc2c1O | > 100 µM | 18.4 µM | 3.28 µM | 12.8 µM | > 100 µM | 10 µM | 80.1 µM | 41.8 µM | 75 µM | > 100 µM | – | – | – | – | – | – | – | – | – | –
5 | C[C@@H]1CC[C@H]2C(COC/C=C/COCC3=C(C(F)(F)F)O[C@@H]4O[C@@]5(C)CC[C@H]6[C@H](C)CC[C@@H]3[C@@]46OO5)=C(C(F)(F)F)O[C@@H]3O[C@@]4(C)CC[C@@H]1[C@]32OO4 | > 100 µM | 98.2 µM | > 100 µM | > 100 µM | > 20.7 µM | 40.6 µM | > 100 µM | > 100 µM | 0.0468 µM | > 100 µM | 0.0781 µM | 1.27 µM | 0.327 µM | 0.0169 µM | 1.64 µM | < 0.01 µM | 0.387 µM | < 0.01 µM | < 0.01 µM | 63.9 µM
6 | O=C(c1cc(Br)ccc1O)c1cc(Br)ccc1O | 25.8 µM | 27.8 µM | 33 µM | 31.7 µM | 27.9 µM | 39 µM | 30.1 µM | 29.4 µM | 44.1 µM | 31.1 µM | – | – | – | – | – | – | – | – | – | –
7 | Cn1cnc([N+](=O)[O-])c1SCC(=O)O | > 100 µM | > 100 µM | > 100 µM | > 100 µM | > 100 µM | – | > 100 µM | > 100 µM | > 100 µM | > 100 µM | – | – | – | – | – | – | – | – | – | –
8 | Oc1cc(O)cc(/C=C/c2ccc(O)c(O)c2)c1 | 15 µM | 32.1 µM | 7.17 µM | 57 µM | 45.7 µM | > 46.5 µM | 16 µM | 20.9 µM | > 28.4 µM | > 100 µM | – | – | – | – | – | – | – | – | – | –
9 | NCS(=O)(=O)O | > 100 µM | > 100 µM | > 100 µM | > 100 µM | > 100 µM | > 100 µM | > 100 µM | > 100 µM | > 100 µM | > 100 µM | – | – | – | – | – | – | – | – | – | –
10 | COc1cc2ccc1-c1cc(ccc1O)CC1c3cc4c(cc3CCN1C)Oc1c(OC)cc3c(c1O4)C(C2)N(C)CC3 (configuration not stated) | 3.44 µM | 4.35 µM | 3.2 µM | 3.27 µM | 3.24 µM | 4.22 µM | 3.38 µM | 2.89 µM | 4.53 µM | 2.89 µM | – | – | – | – | – | – | – | – | – | –
11 | O=C(CC1(O)C(=O)Nc2ccc(Br)cc21)c1ccc(C(=O)NCC2CCC3(CC2)OOC2(CCCCC2)OO3)cc1 (configuration not stated) | 29.2 µM | 11.6 µM | 1.37 µM | 23 µM | 26.7 µM | 5.87 µM | 9.23 µM | 30 µM | – | 46 µM | 5.77 µM | 1.52 µM | 0.336 µM | 4.96 µM | 5.46 µM | 2.14 µM | 2.92 µM | 3.09 µM | – | 11.1 µM
12 | COc1cnc2c(c1)C(=O)c1c-2n(CCCN2CCNCC2)c(=O)c2cc(Cl)ccc12 | – | – | – | 2.21 µM | – | – | 4.65 µM | – | – | – | – | – | – | 0.66 µM | – | – | 2.11 µM | – | – | –
13 | c1ccc2c[n+](CCCCCCCCCC[n+]3ccc4ccccc4c3)ccc2c1 | > 10 µM | > 10 µM | > 10 µM | > 10 µM | > 10 µM | – | > 10 µM | > 10 µM | > 10 µM | > 10 µM | – | – | – | – | – | – | – | – | – | –
14 | O=C1c2ccccc2C(=O)c2c(NCCNC(=O)C3CCCN3)ccc(NCCNC(=O)C3CCCN3)c21 (configuration not stated) | > 100 µM | > 100 µM | 65.2 µM | > 100 µM | – | 84.2 µM | > 100 µM | 27.5 µM | > 100 µM | > 100 µM | – | – | – | – | – | – | – | – | – | –
15 | Cc1ccc(C)c(/C(=N\N=C(N)N)C2CC2)c1 | > 100 µM | > 100 µM | > 100 µM | > 100 µM | > 100 µM | > 100 µM | > 100 µM | 82.7 µM | – | > 100 µM | – | – | – | – | – | – | – | – | – | –
16 | CCOC(=O)c1c2c(c(O)c3ccccc3c(O)n(-c3ccc(C)cc3)c1C)C(=O)C=CC2=O | 71.7 µM | > 100 µM | 41.7 µM | 41.1 µM | 55.7 µM | 29.4 µM | 64.7 µM | 38.3 µM | 51.4 µM | – | – | – | – | – | – | – | – | – | – | –
17 | O=C(CSCC(=O)N/N=C/c1cccc(OCc2ccccc2)c1)N/N=C/c1cccc(OCc2ccccc2)c1 | > 100 µM | > 100 µM | > 100 µM | > 100 µM | > 100 µM | 46.4 µM | > 100 µM | > 100 µM | 53.3 µM | > 100 µM | – | – | – | – | – | – | – | – | – | –
18 | Cc1c2ccnc(-c3ccccc3)c2cc2c1[nH]c1ccccc12 | 5.48 µM | 21.4 µM | 27.7 µM | 8.14 µM | 6.22 µM | 6.96 µM | 7.3 µM | 4.61 µM | 5.35 µM | 19.5 µM | – | – | – | – | – | – | – | – | – | –
19 | CC(C)CNc1nc(N)[nH]c(=O)c1NC=O | > 100 µM | > 100 µM | > 100 µM | > 100 µM | > 100 µM | > 100 µM | > 100 µM | > 100 µM | > 100 µM | > 100 µM | – | – | – | – | – | – | – | – | – | –
20 | N=C(N)c1ccc(-c2ccc(-c3ccc(Cl)cn3)s2)cc1 | 3.38 µM | – | – | – | – | – | – | – | – | 3.07 µM | 1.84 µM | – | – | – | – | – | – | – | – | 1.67 µM
21 | CN(C)c1ccc2nc3c(C(=O)O)cc(=O)c(O)c-3oc2c1 | 46 µM | > 100 µM | 31.9 µM | > 100 µM | 76.3 µM | 51.8 µM | 40.2 µM | 80.1 µM | 72.3 µM | > 100 µM | – | – | – | – | – | – | – | – | – | –
22 | CN(C)c1ccc(C2CC(=O)C(C#N)=C(c3ccccc3)NN2C)cc1 (configuration not stated) | – | – | 28.5 µM | 24.5 µM | > 100 µM | > 100 µM | 57.2 µM | > 100 µM | 19.9 µM | > 100 µM | – | – | – | – | – | – | – | – | – | –

Reference: PubChem BioAssay (NCI)
